Measurements taken from US8178547B2, “Heterocyclic antiviral compounds” (Roche Palo Alto LLC, priority 2008, dated 2012).

Experiments:
[1] = target: T1, HCV polymerase (NS5B570n-Con1) (Hepatitis C virus genotype 1b, UniProt Q9WMX2); experiment: HCV NS5B RNA polymerase activity; assay type: biochemical, HCV Con1 strain; conditions: NS5B pol inhibition IC50, as in Example 32 (20 nM RNA template)
T1 construct: a 21 amino acid C-terminal deletion of full-length HCV polymerase; made in house; host or cells: E. coli BL21(DE3) pLysS, plasmid pET17b
Procedure: The enzymatic activity of HCV polymerase (NS5B570n-Con1) was measured as the incorporation of radiolabeled nucleotide monophosphates into acid insoluble RNA products. Unincorporated radiolabeled substrate was removed by filtration and scintillant was added to the washed and dried filter plate containing radiolabeled RNA product. The amount of RNA product generated by NS5B570n-Con1 at the end of the reaction was directly proportional to the amount of light emitted by the scintillant.
The HCV polymerase used in the enzymatic activity assay is a 21 amino acid C-terminal deletion of full-length HCV polymerase derived from HCV Con1 strain, genotype 1b (GenBank accession number AJ242654) (NS5B570n-Con1). The NS5B570n-Con1 was sub-cloned downstream to the T7 promoter of the plasmid expression construct pET17b and transformed into E. coli strain BL21(DE3) pLysS for protein expression. A single colony was used to start an innoculum for a 10 L culture in LB media supplemented with 100 μg/mL ampicillin at 37° C. Protein expression was induced by the addition of 0.25 mM isopropyl-β-D-thiogalactopyranoside (IPTG) when the optical density of the culture at […] was 0.8. Induction of protein expression was carried out at 30° C. for 16 h after which the cells were harvested by centrifugation. NS5B570n-Con1 was purified to homogeneity using a three-column purification protocol including subsequent column chromatography on Ni-NTA, SP-Sepharose HP and Superdex 75 resins.
[…] TRK-412; specific activity: 30 to 60 Ci/mmol;), 1 μM each ATP, CTP, and GTP, 40 mM Tris-HCl pH 8.0, 40 mM NaCl, 4 mM DTT (dithiothreitol), 4 mM MgCl2, 5 μl of compound serial diluted in DMSO, and nuclease-free water to a final reaction volume of 50 μl. Enzymatic reactions in the presence of poly A RNA template (see section 0004) contained 20 nM Poly A:oligo(rU)16 premixed (see section 0004), 20 nM NS5B570n-Con1 enzyme, 1 μCi of tritiated UTP (Perkin Elmer catalog no. TRK-412; specific activity: 30 to 60 Ci/mmol), 40 mM Tris-HCl pH 8.0, 40 mM NaCl, 4 mM DTT (dithiothreitol), 4 mM MgCl2, 5 μl of compound serial diluted in DMSO, and nuclease-free water to a final reaction volume of 50 μl. Reaction mixtures were assembled in 96-well filter plates (cat #MADVN0B, Millipore Co.) and incubated for 2 h at 30° C. Reactions were stopped by addition of 10% final (v/v) trichloroacetic acid and incubated for 40 min at 4° C. Reactions were filtered, washed with 8 reaction volumes of 10% (v/v) trichloroacetic acetic acid, 4 reaction volumes of 70% (v/v) ethanol, air dried, and 25 μl of scintillant (Microscint 20, Perkin-Elmer) was added to each reaction well.
Two RNA templates were used to assay compounds described herein. The cIRES RNA template was 377 nucleotide long and consisted of a partial complementary sequence (36 nucleotides) of the core protein, followed by 341 nucleotide of the complementary sequence of the internal ribosome entry site. The poly A RNA template (GE Amersham catalog number 27-4110) was a homopolymeric RNA pre-annealed to a oligo(rU)16 primer at a molar ratio of 3-to-1 (primer-template).
The amount of light emitted from the scintillant was converted to counts per minute (CPM) on a Topcount® plate reader (Perkin-Elmer, Energy Range: Low, Efficiency Mode: Normal, Count Time: 1 min, Background Subtract: none, Cross talk reduction: Off).
Data was analyzed in Excel® (Microsoft) and ActivityBase® (Idbs®). The reaction in the absence of enzyme was used to determine the background signal, which was subtracted from the enzymatic reactions. […] All data was expressed as a percentage of the positive control. The compound concentration at which the enzyme-catalyzed rate of RNA synthesis was reduced by 50%

SMILES | IC50 [1] [nM] | melting point [°C]
COc1c(/C=C/c2ccc(NS(C)(=O)=O)cc2)cc(-c2cn(C)c(=O)[nH]c2=O)cc1C(C)(C)C [Compound I-8, N-(4-{(E)-2-[3-tert-Butyl-2-methoxy-5-(1-methyl-2,4-dioxo-1,2,3,4-tetrahydro-pyrimidin-5-yl)-phenyl]-vinyl}-phenyl)-methanesulfonamide] | 1.3 | > 300
COc1c(/C=C/c2ccc(NS(C)(=O)=O)cc2)cc(-c2c[nH]c(=O)[nH]c2=O)c2c1C(C)(C)CO2 [Compound I-28, N-(4-{(E)-2-[7-(2,4-dioxo-1,2,3,4-tetrahydro-pyrimidin-5-yl)-4-methoxy-3,3-dimethyl-2,3-dihydro-benzofuran-5-yl]-vinyl}-phenyl)-methanesulfonamide] | 0.6 | > 300
CC(C)(C)c1cc(/C=C/c2ccc(NS(C)(=O)=O)cc2)cc(-c2ncc[nH]c2=O)c1 [Compound I-10] | 7 | 283 to 285
COc1c(NC(=O)c2ccc(N)cc2)cc(-c2ccn[nH]c2=O)cc1C(C)(C)C [Compound I-19, 4-Amino-N-[3-tert-butyl-2-methoxy-5-(3-oxo-2,3-dihydro-pyridazin-4-yl)-phenyl]-benzamide] | 15 | 174 to 176
COc1c(/C=C/c2ccc(NS(C)(=O)=O)cc2)cc(-c2c[nH]c(=O)[nH]c2=O)cc1CC(F)(F)F [Compound I-38, N-(4-{(E)-2-[5-(2,4-Dioxo-1,2,3,4-tetrahydro-pyrimidin-5-yl)-2-methoxy-3-(2,2,2-trifluoro-ethyl)-phenyl]-vinyl}-phenyl)-methanesulfonamide] | 1.4 | –
CC(C)(C)c1cc(/C=C/c2ccc(NS(C)(=O)=O)cc2)cc(-c2ccn[nH]c2=O)c1 [Compound I-15] | 3 | –
COCc1cc(NS(C)(=O)=O)ccc1/C=C/c1cc(-c2c[nH]c(=O)[nH]c2=O)cc(C(C)(C)C)c1OC [Compound I-40, N-(4-{(E)-2-[3-tert-Butyl-5-(2,4-dioxo-1,2,3,4-tetrahydro-pyrimidin-5-yl)-2-methoxy-phenyl]-vinyl}-3-methoxymethyl-phenyl)-methanesulfonamide] | 2.8 | 172 to 175
COc1c(/C=C/c2ccc(NS(C)(=O)=O)cc2)cc(-c2cnc(C)[nH]c2=O)cc1C(C)(C)C [Compound I-43, N-(4-{(E)-2-[3-tert-Butyl-2-methoxy-5-(2-methyl-6-oxo-1,6-dihydro-pyrimidin-5-yl)-phenyl]-vinyl}-phenyl)-methanesulfonamide] | 1.1 | –
CC(C)(C)c1cc(/C=C/c2ccc(NS(C)(=O)=O)cc2)c(O)c(-c2ncc[nH]c2=O)c1 [Compound I-6, N-(4-{(E)-2-[5-tert-Butyl-2-hydroxy-3-(3-oxo-3,4-dihydro-pyrazin-2-yl)-phenyl]-vinyl}-phenyl)-methanesulfonamide] | 454 | 280 to 282
COc1c(/C=C/c2ccccc2)cc(-c2ccn[nH]c2=O)cc1C(C)(C)C [Compound I-14] | 7 | 100 to 102
COc1c(/C=C/c2ccc(NS(C)(=O)=O)cc2)cc(-c2ccn[nH]c2=O)c2c1C(C)(C)CO2 [Compound I-27, N-(4-{(E)-2-[4-Methoxy-3,3-dimethyl-7-(3-oxo-2,3-dihydro-pyridazin-4-yl)-2,3-dihydro-benzofuran-5-yl]-vinyl}-phenyl)-methanesulfonamide] | 0.3 | –
CC(C)(C)c1cc(CCc2ccc(NS(C)(=O)=O)cc2)c(O)c(-c2ncc[nH]c2=O)c1 [Compound I-5, N-(4-{2-[5-tert-butyl-2-hydroxy-3-(3-oxo-3,4-dihydro-pyrazin-2-yl)-phenyl]-ethyl}-phenyl)-methanesulfonamide] | 92 | –
COc1c(CCc2ccc(NC(C)=O)cc2)cc(-c2ncc[nH]c2=O)cc1C(C)(C)C [Compound I-2, N-(4-{2-[3-tert-Butyl-2-methoxy-5-(3-oxo-3,4-dihydro-pyrazin-2-yl)-phenyl]-ethyl}-phenyl)-acetamide] | 710 | 181 to 185
COc1c(/C=C/c2ccc(NS(C)(=O)=O)cc2)cc(-c2c[nH]c(=O)[nH]c2=O)cc1C1(C(F)F)CC1 [Compound I-30, N-(4-{(E)-2-[3-(1-Difluoromethyl-cyclopropyl)-5-(2,4-dioxo-1,2,3,4-tetrahydro-pyrimidin-5-yl)-2-methoxy-phenyl]-vinyl}-phenyl)-methanesulfonamide] | 0.3 | 292 to 295
COc1ccc(-c2ccn[nH]c2=O)cc1C(C)(C)C [Compound I-16] | 132 | 202 to 204
COc1c(/C=C/c2ccc(NS(C)(=O)=O)cc2)cc(-c2cnc(Cl)[nH]c2=O)cc1C(C)(C)C [Compound I-32, N-(4-{(E)-2-[3-tert-Butyl-5-(2-chloro-6-oxo-1,6-dihydro-pyrimidin-5-yl)-2-methoxy-phenyl]-vinyl}-phenyl)-methanesulfonamide] | 5 | > 300
COc1c(-c2ccc3cc(NS(C)(=O)=O)ccc3c2)cc(-c2ncn[nH]c2=O)cc1C(C)(C)C [Compound I-37, N-{6-[3-tert-Butyl-2-methoxy-5-(6-oxo-1,6-dihydro-[1,2,4]triazin-5-yl)-phenyl]-naphthalen-2-yl}-methanesulfonamide] | 0.7 | –
COCc1cc(NS(C)(=O)=O)ccc1/C=C/c1cc(-c2cnc(OC)[nH]c2=O)cc(C(C)(C)C)c1OC [Compound I-39, N-(4-{(E)-2-[3-tert-Butyl-2-methoxy-5-(2-methoxy-6-oxo-1,6-dihydro-pyrimidin-5-yl)-phenyl]-vinyl}-3-methoxymethyl-phenyl)-methanesulfonamide] | 0.9 | –
COc1c(/C=C/c2ccc(NS(C)(=O)=O)cc2)cc(-c2ncc[nH]c2=O)cc1C(C)(C)C [Compound I-11, N-(4-{(E)-2-[3-tert-Butyl-2-methoxy-5-(3-oxo-3,4-dihydro-pyrazin-2-yl)-phenyl]-vinyl}-phenyl)-methanesulfonamide] | 4 | –
COc1c(/C=C/c2ccc(NS(C)(=O)=O)cc2)cc(-c2c(O)nc(C)[nH]c2=O)cc1C(C)(C)C [Compound I-41, N-(4-{(E)-2-[3-tert-Butyl-5-(4-hydroxy-2-methyl-6-oxo-1,6-dihydro-pyrimidin-5-yl)-2-methoxy-phenyl]-vinyl}-phenyl)-methanesulfonamide] | 0.4 | –
COc1c(/C=C/c2ccc(NS(C)(=O)=O)cn2)cc(-c2c[nH]c(=O)[nH]c2=O)cc1C(C)(C)C [Compound I-29, N-(6-{(E)-2-[3-tert-Butyl-5-(2,4-dioxo-1,2,3,4-tetrahydro-pyrimidin-5-yl)-2-methoxy-phenyl]-vinyl}-pyridin-3-yl)-methanesulfonamide] | 1.2 | –
COc1c(/C=C/c2ccc(NS(C)(=O)=O)cc2F)cc(-c2c[nH]c(=O)[nH]c2=O)cc1C(C)(C)C [Compound I-7, N-(4-{(E)-2-[3-tert-Butyl-5-(2,4-dioxo-1,2,3,4-tetrahydro-pyrimidin-5-yl)-2-methoxy-phenyl]-vinyl}-3-fluoro-phenyl)-methanesulfonamide] | 0.3 | –
